US20230357430A1, “RNF167 AND CASTOR1 AS NOVEL MTOR TARGETS” (UNIVERSITY OF PITTSBURGH - OF THE COMMONWEALTH SYSTEM OF …, priority 2020, published 2023)
“Also recorded” adds a separate entry of the source. Peptide text beside a SMILES is read from it. * marks the point of attachment. Cbz = O=C(OCc1ccccc1)*

What was measured:
[1] = test system: CASTOR1 protein level in 293T cells; experiment: CASTOR1 protein level by immunoblotting after chemical treatment; type: cell-based, human; conditions: for Flag-CASTOR1 S14D protein level: 293T cells stably expressing Flag-CASTOR1 S14D; for Flag-CASTOR1 S14D protein level / Flag-CASTOR1 WT and S14A protein level: FIG. 10B-10D; for Flag-CASTOR1 WT and S14A protein level: 293T cells stably expressing Flag-CASTOR1 WT or S14A
Procedure: (§1) Cell culture and transfection: 293T cells obtained from ATCC (CRL-3216) were maintained in DMEM supplemented with 10% FBS. MCF7, T47D, HCC1569, and HCC202 cells were obtained from Dr. Xiaosong Wang at the University of Pittsburgh, and cultured in RPMI1640 with 10% FBS. MM cells were cultured in DMEM plus 10% FBS, while KMM cells were cultured in DMEM plus 10% FBS and 10 μg/ml hygromycin. HSAEC (FC-0016) and HLBEC (FC-0054) cells were purchased from Lifeline and cultured with the BronchiaLife™ Epithelial Airway Medium Complete Kit (Lifeline LL-0023). All cells were maintained at 37 C° in 5% CO2.
(§2) For amino acid deprivation and re-stimulation to assess mTORC1 activation, cells were incubated in EBSS medium (Thermo 24010043) for 50 min and then stimulated by adding arginine (Sigma A5131) at the indicated concentration. For ubiquitination assays, cells were deprived of FBS or arginine, or treated with 10 μM MK2206 (Selleckem S1078) overnight before immunoprecipitation and immunoblotting, or re-stimulated with FBS or arginine for 12 h before analysis.
For chemical treatments, CHX (CST 2112) or MG132 (Sigma M8699) dissolved in DMSO (VWR 97061-250) was diluted in medium to a specified concentration. Medium containing MG132 or CHX was then used to replace the original medium, and cells were cultured in the presence of MG132 for a specified time.
Immunoblotting analysis: To detect all proteins except CASTOR1, samples were separated with 4%-20% SDS-polyacrylamide gels (Genscript M00656 and M00657). To detect CASTOR1 protein, samples were resolved with 10% SDS-polyacrylamide gels (Genscript M00665 and M00666). Proteins resolved in gels were then transferred to nitrocellulose membranes (GE Healthcare 10600004), which were incubated with primary and secondary antibodies overnight and for 1 h at room temperature, respectively. The signals were developed using the Luminiata Crescendo Western HRP Substrate (EMD Millipore WBLUR0500) and SuperSignal West Femto Maximum Sensitivity Substrate (Thermo 34096) or fluorescence secondary antibodies. The images were recorded with a ChemiDoc MP Imaging System (Bio-Rad 17001402) at either Chemi, Dylight 500, DyLight 800, or StarBright B700 channels.

[2] = test system: mTORC1; experiment: mTORC1 activation status (pS6K, p4EBP1) by immunoblotting; type: cell-based, human; conditions: 293T cells, FIG. 1C
Procedure: as §1
For amino acid deprivation and re-stimulation to assess mTORC1 activation, cells were incubated in EBSS medium (Thermo 24010043) for 50 min and then stimulated by adding arginine (Sigma A5131) at the indicated concentration. […]
(§3) Immunoblotting analysis: To detect all proteins except CASTOR1, samples were separated with 4%-20% SDS-polyacrylamide gels (Genscript M00656 and M00657). […] The signals were developed using the Luminiata Crescendo Western HRP Substrate (EMD Millipore WBLUR0500) and SuperSignal West Femto Maximum Sensitivity Substrate (Thermo 34096) or fluorescence secondary antibodies. The images were recorded with a ChemiDoc MP Imaging System (Bio-Rad 17001402) at either Chemi, Dylight 500, DyLight 800, or StarBright B700 channels.

[3] = test system: CASTOR1 mRNA; experiment: CASTOR1 mRNA level by RT-qPCR; type: cell-based, human; conditions: 293T cells, FIG. 6K
Excerpt: Reverse transcription real-time quantitative polymerase-chain reaction (RT-qPCR): Total RNA was extracted by using TRI Reagent (Sigma T9424) based on the manufacturer's instructions. Total RNA was subjected to reverse transcription using the Maxima H Minus First Strand cDNA Synthesis Kit (Thermo K1652). SsoAdvanced™ Universal SYBR® Green Supermix Kit (Bio-Rad 172-5272) was applied for qPCR analysis. The relative mRNA levels were normalized to a house-keeping gene, which yielded 2^−ΔΔCt values. For qPCR reaction, each sample was run in triplicates with cycle threshold (Ct) values within 0.5 Ct differences among the triplicates. The primers used for gene expression were 5′[…]3′ (forward; SEQ ID NO: 22) and 5′[…]3′ (reverse; SEQ ID NO: 23) for human CASTOR1; and […] (forward; SEQ ID NO: 24) and […] (reverse; SEQ ID NO: 25) for human β-actin.

[4] = test system: CASTOR1 phosphorylation at S14; experiment: CASTOR1 phosphorylation at the AKT consensus motif (S14), immunoprecipitation and immunoblotting; type: cell-based, human; conditions: Flag-CASTOR1 in cells, FIG. 2C
Procedure: as §2
Immunoprecipitation. Cells were lysed in lysis buffer (50 mM Tris-HCl, with 150 mM NaCl, 1 mM EDTA, and 1% Triton X-100, pH 7.4) supplemented with a complete protease inhibitor cocktail (Thermo 78438) and phosphatase inhibitor (Thermo 78427), followed by centrifugation at 4° C. for 5 min. […]
as §3

[5] = molecular target: T1, AKT1 (Homo sapiens, UniProt P31749); experiment: In vitro kinase assay, GST-AKT1 phosphorylation of GST-CASTOR1; type: biochemical; conditions: in the presence of ATP, FIG. 2D
T1 construct: purchased Novus Biologicals 1775-KS (GST-AKT1); H00652968-P01 (GST-CASTOR1)
T1 sequence (P31749 whole entry): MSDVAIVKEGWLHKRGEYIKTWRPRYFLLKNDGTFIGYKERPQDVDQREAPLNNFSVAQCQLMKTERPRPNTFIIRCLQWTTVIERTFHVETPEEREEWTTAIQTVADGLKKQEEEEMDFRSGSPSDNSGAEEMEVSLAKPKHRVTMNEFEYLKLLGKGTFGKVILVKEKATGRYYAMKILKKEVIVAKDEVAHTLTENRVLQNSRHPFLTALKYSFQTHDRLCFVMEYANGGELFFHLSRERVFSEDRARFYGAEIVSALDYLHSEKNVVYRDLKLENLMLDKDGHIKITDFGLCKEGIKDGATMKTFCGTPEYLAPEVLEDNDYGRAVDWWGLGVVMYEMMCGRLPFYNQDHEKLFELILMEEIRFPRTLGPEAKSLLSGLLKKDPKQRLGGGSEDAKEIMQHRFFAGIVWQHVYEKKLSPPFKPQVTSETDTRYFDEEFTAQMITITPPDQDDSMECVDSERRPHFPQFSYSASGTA
Procedure: In vitro kinase assay: Recombinant GST-AKT1 protein (Novus Biologicals, 1775-KS) was mixed with GST-CASTOR1 protein (Novus Biologicals, H00652968-P01) in a 30 μl reaction mixture at room temperature for 1 h. The reaction mixture contained protease inhibitors, 100 mM HEPES (pH 7.4), 150 mM NaCl, 50 mM MgCl2,1 mM DTT, 0.01% NaN3, 1 mM ATP, 0.2 μg GST-AKT1 and 1 μg GST-CASTOR1.

[6] = test system: ER+ breast cancer cells; experiment: Endogenous CASTOR1 protein level in ER+ breast cancer cells by immunoblotting; type: cell-based, human; conditions: FIG. 13D
Procedure: as §1
as §3, with “M00657). To detect CASTOR1 protein, samples were resolved with 10% SDS-polyacrylamide gels (Genscript M00665 and M00666).” for “M00657).”

[7] = molecular target: human CASTOR1 wild type (Flag-CASTOR1 WT) (UniProt Q8WTX7)
[8] = molecular target: T2, recombinant GST-CASTOR1 protein (Novus Biologicals, H00652968-P01) (UniProt Q8WTX7)
T2 sequence: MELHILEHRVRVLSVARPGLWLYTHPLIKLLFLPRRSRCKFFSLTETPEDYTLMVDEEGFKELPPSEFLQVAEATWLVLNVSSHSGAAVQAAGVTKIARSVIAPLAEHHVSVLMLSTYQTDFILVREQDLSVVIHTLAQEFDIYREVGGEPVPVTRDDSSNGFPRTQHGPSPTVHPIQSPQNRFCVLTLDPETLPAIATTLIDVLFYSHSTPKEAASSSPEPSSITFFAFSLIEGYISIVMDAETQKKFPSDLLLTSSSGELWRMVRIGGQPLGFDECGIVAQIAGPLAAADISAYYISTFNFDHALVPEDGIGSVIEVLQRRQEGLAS

[9] = molecular target: the molecule itself; experiment: dimerization assay, method not described (FIG. 33)

For `C[C@@H]1C[C@@H]([C@H](O)CC2CC(=O)NC(=O)C2)C(=O)[C@@H](C)C1` [CHX, cycloheximide], the “Flag-CASTOR1 S14D protein level” value [1] was “reduced” and the “Flag-CASTOR1 WT and S14A protein level” value [1] was “minimal effects on WT and S14A”.

For `CC(C)C[C@@H](C=O)NC(=O)[C@H](CC(C)C)NC(=O)[C@H](CC(C)C)NC(=O)OCc1ccccc1` [MG132] (Cbz-Leu-Leu-Leu-aldehyde), the “accumulation of CASTOR1 protein” value ([1]; 293T cells co-transfected with Flag-CASTOR1 and myr-HA-AKT1, FIG. 9H) was “increased the accumulation of CASTOR1 protein”, the “Flag-CASTOR1 S14D protein level” value [1] was “increased S14D protein level” and the “Flag-CASTOR1 WT and S14A protein level” value [1] was “minimal effects on WT and S14A”. For the same molecule, the “RNF167-mediated downregulation of CASTOR1 protein” value ([1]; RNF167 overexpression, FIG. 7H) was “partially rescues” and the “accumulation of CASTOR1 protein” value ([1]; cells expressing Flag-CASTOR1 and the vector control, FIG. 9H) was “only had a marginal effect”.

In the case of `NC1(c2ccc(-c3nc4ccn5c(=O)[nH]nc5c4cc3-c3ccccc3)cc2)CCC1` [MK2206], the CASTOR1 protein level ([1]; 293T cells, FIG. 1C) is reported as “upregulated CASTOR1 protein”, the mTORC1 activation [2] is reported as “decreased mTORC1 activation” and the “CASTOR1 mRNA level” value [3] is reported as “but not mRNA level”. For the same molecule, the “specific phosphorylation of the AKT motif of CASTOR1 (S14)” value [4] was “significantly reduced the specific phosphorylation of the AKT motif”, the “phosphorylation of purified GST-CASTOR1 by purified GST-AKT1” value [5] was “abolished” and the “endogenous CASTOR1 protein level” value [6] was “enhanced; also recorded: increases the endogenous CASTOR1 protein level”.

In the case of RING finger protein 167 (RNF167), the CASTOR1 ubiquitination [7] is reported as “only RNF167 increased CASTOR1 ubiquitination”.

For “recombinant GST-AKT1 protein (Novus Biologicals, 1775-KS)”, the “in vitro kinase assay: phosphorylation of GST-CASTOR1” value [8] was “efficiently phosphorylated purified GST-tagged CASTOR1 (GST-CASTOR1) recombinant protein only in the presence of ATP, which was abolished by AKT inhibitor MK2206”.

B1: human CASTOR1 wild type (Flag-CASTOR1 WT) (other, UniProt Q8WTX7 1-329, looked up)
chain: T2 sequence
notes: Expressed in cells and pulled down from lysates; also called HA-CASTOR1; cytosolic arginine sensor for mTORC1 subunit 1; not shown: N-terminal Flag tag
B1: binds [9].
